In patent publication US12459918B2, “Isoquinolinone derivatives serving as rock protein kinase inhibitors and use thereof” (GUANGZHOU OCUSUN OPHTHALMIC BIOTECHNOLOGY CO., LTD., priority 2019, dated 2025):

Tested on: New Zealand rabbits with normal intraocular pressure
Experiment: Intraocular pressure reduction experiment in New Zealand rabbits with normal intraocular pressure
Type: in vivo
Conditions: for Intraocular pressure in the left eye: 20 mg/mL group, left eye (saline or solvent); for Intraocular pressure in the right eye: 20 mg/mL in right eye; for Reduction magnitude of intraocular pressure: 20 mg/mL, left minus right eye
Source text: Experimental Example 2. Intraocular Pressure Reduction Experiment in New Zealand Rabbits with Normal Intraocular Pressure
Rabbits with normal intraocular pressure were adopted to screen intraocular pressure reduction actions of the potential compounds by eye-drop administration.
Male New Zealand rabbits, aged 97-127 days, weighted 2.65-3.5 kg, purchased from PizhouDongfang Breeding Co. Ltd.
The male New Zealand rabbits were randomly divided into 8 rabbits/per group using a computer-generated randomization method Animals in each group were eye-dropped with different test samples in the right eye, and normal saline or solvent in the left eye, and the volume of the administration was both 50 μL/eye. The intraocular pressure of the animals was measured before administration and in 1, 2, 4, 6, 8 and 10 hours after the administration, respectively.

## Cc1cn(COC(=O)c2ccccc2)c(=O)c2cccc(S(=O)(=O)N3CC[C@H](N)C3)c12 [Compound 64]
1 hour after administration
  Intraocular pressure in the left eye: 11.96 mmHg
  Intraocular pressure in the right eye: 11.54 mmHg
  Reduction magnitude of intraocular pressure: 0.42 mmHg
2 hours after administration
  Intraocular pressure in the left eye: 9.79 mmHg
  Intraocular pressure in the right eye: 7.42 mmHg
  Reduction magnitude of intraocular pressure: 2.37 mmHg
4 hours after administration
  Intraocular pressure in the left eye: 11.50 mmHg
  Intraocular pressure in the right eye: 7.13 mmHg
  Reduction magnitude of intraocular pressure: 4.37 mmHg
6 hours after administration
  Intraocular pressure in the left eye: 11.54 mmHg
  Intraocular pressure in the right eye: 7.38 mmHg
  Reduction magnitude of intraocular pressure: 4.16 mmHg
8 hours after administration
  Intraocular pressure in the left eye: 11.75 mmHg
  Intraocular pressure in the right eye: 7.63 mmHg
  Reduction magnitude of intraocular pressure: 4.12 mmHg
10 hours after administration
  Intraocular pressure in the left eye: 11.88 mmHg
  Intraocular pressure in the right eye: 9.71 mmHg
  Reduction magnitude of intraocular pressure: 2.17 mmHg
Before administration
  Intraocular pressure in the left eye: 11.29 mmHg
  Intraocular pressure in the right eye: 12.04 mmHg
  Reduction magnitude of intraocular pressure: −0.75 mmHg
